Data on one substance can be found in patent EP0423240B1, “MODULATION OF VIRUS-HOST CELL INTERACTIONS USING CYCLIC OLIGOSACCHARIDES” (THE TRUSTEES OF THE UNIVERSITY OF PENNSYLVANIA, priority 1988, dated 1990).

In experiment [1] the test system is HIV-1. Briefly: Reverse transcriptase levels of cells already infected with HIV-1. The conditions noted are these: reverse transcriptase activity, virus particle production, virus particle morphology. The experiment is classed as cell-based. As for the experimental part: Virus infected cells were pelleted by centrifugation and 50 µl of culture suprenatant was collected from each well for assay. Culture supernatant (25 µl) was plated in 96 well round bottomed plates and 50 µl of transcriptase cocktail was added to each well. Cocktail is 50 mM Tris-HC1, pH 8.0, 20 mM DTT, 0.6 mM MnC1₂, 60 mM NaC1, 0.05% NP-40, 5 µg/ml dt (oligodeoxythymidilic acid), 10 µg/ml poly A (polyriboadenylic acid), 10 µM dTTP, 1 Ci/mm ³²P dTTP. Plates were then incubated for 60 minutes at 37°C. After incubation samples were spotted onto Whatman DEAE-81 paper, washed and analyzed by counting or direct autoradiography.
In order to determine the specific sites of viral pathogenesis interrupted by the cyclodextrin compounds, we assayed the ability of the cyclodextrins treatment to effect reverse transcriptase levels of cells already infected with HIV-1. In contrast to the results observed when virus was added to uninfected cells, (see supra, Section 6.2.1.) no significant inhibition of reverse transcriptase was observed.

The subject of experiment [2] is HTLV III -B (HIV-1 IIIB). The experiment in a line: Fusion inhibition (syncytia) assay, Sup-T1 cells with HTLV-III B infected H9 cells. The conditions noted are these: degree and size of syncytia. The experiment is classed as cell-based. On the set-up: key: 4=Full; 0=None; S=Small; M=Medium; L=Large. The protocol: The fusion inhibition (syncytia) assay was performed according to published procedures (Dalgleish et al., Nature 312:763, (1984) and Sodroski et al., Nature 322: 470, (1986)). Sup-T1 cells are favored target cells for their rapid degree of cell fusion when co-cultured with HIV-1 producing cell lines. Cell culture is performed according to the method of Dalgleish et al. (Nature 312:763, (1984)). Sup-T1 cells are plated in 96 well plates (10⁵ cells/well in RPMI 1640 + 10% FCS) and incubated with or without dilutions of beta-cyclodextrin tetradecasulfate (β-CD-TDS or β-CD-14S) at 37°C. HTLV-III B (HIV-1) or WMJ infected H9 cells are then added 5x10⁴/well and the number of multinucleated giant cells per 16 X field counted with a Zeiss inverted field phase contrast microscope after 18 hours. Syncytia are easily identified and inhibition of syncytia by different dilutions of β-CD-TDS can be compared with to β-CD-TDS free preparations. It will be apparent to those skilled in the art, that the formation of syncytia between cells susceptible of infection by HIV-1 and cells expressing HIV-1 envelope glycoproteins represents the same molecular phenomena involved in infection by HIV-1, but is far less hazardous and may be employed to study the mechanisms of infection and the effects of modulating factors on HIB-1 intracellular infection mechanisms, without fear of exposure to the virus itself.
For screening of different dilutions, 10-fold dilutions of a 150 micromolar solution of β-CD-TDS were prepared and directly added to syncytia assays as described above.
For the assay of HIV-1 fusion, Supt T1 cells were used as target cells. They fuse rapidly when cocultured with HIV-1 (H9/IIIb) producing cell lines. For the assay of HIV-2 mediated cell fusion, H9 cells were used as target cells. They fuse rapidly when cocultured with HIV-2 (CEMROD-2) producing cell lines. HIV infected cells were plated in 96 well plates (10⁴ cells/well in RPMI 1640 + 10% FCS) and incubated with or without dilution of compounds for 30 minutes at 37°C. Target cells are then added 5 x 10⁵/well and the number of syncytia are qualitatively determined after the incubation periods described in the text.
In a series of preliminary experiments, a syncytia assay induced by HIV-1 fusion of Sup-T1 cells was performed as described in Section 6.1.1, supra.

Turning to “beta-cyclodextrin tetradecasulfate [Beta-CD-14S]”, the “effects on cells that have already been infected with HIV-1” value in experiment [1] is reported as “no detectable effects”. Further, the “Degree of Syncytia Formation” value in experiment [2] (0.15 micromolar β-CD-TDS) came out at 4 L; in experiment [2] (1.50 micromolar β-CD-TDS) it was 4 L; in experiment [2] (15.0 micromolar β-CD-TDS), 4 L; in experiment [2] (150 micromolar β-CD-TDS), 2 M; in experiment [2] (1500 micromolar β-CD-TDS), 0.
